Results reported in patent US20220409608A1, “DIMERIC NAPHTHALIMIDE FORMULATIONS” (ALUCENT BIOMEDICAL, INC., priority 2019, published 2022).
Each block holds one compound with its values, some of them ahead of it.

Assays:
Assay type in all cases: physicochemical
[1] = Combination of exemplary composition and paclitaxel injection solution, UPLC; conditions: for Compound of Formula (I) (HPLC area-%) / Total impurities (HPLC area-%): equal volumes of formulation and paclitaxel injection solution (6 mg/mL); for Compound of Formula (I) (HPLC area-%) / Total impurities (HPLC area-%) / Stability after being combined in the same composition: room temperature; for Stability after being combined in the same composition: seven hours after combining Compound of Formula (I) formulation and paclitaxel
Experimental: (§1) The purity of a composition was analyzed by UPLC on a 2.1×100 mm C18 column with 1.7 μm packing. The analytical method was a 7 minute gradient at 30° C. and a flowrate of 0.61 mL/min consisting of acetonitrile, water, and trifluoracetic acid. Absorption was measured at 210 nm and 440 nm.
Equal volumes of a formulation from Example 1 and paclitaxel injection solution (6 mg/mL; used as received from manufacturer) were combined in an amber scintillation vial and stored at room temperature. The resulting mixture was a clear yellow solution. An aliquot was obtained, diluted 1:10 with 0.1% aqueous TFA and analyzed by UPLC as described herein. Another aliquot was obtained, 7 hours after preparation of the mixture, and similarly diluted and analyzed.

[2] = Stability of formulations at 40° C. at various pH values (impurities by UPLC)
Experimental: as §1
To determine the stability of the formulations described herein, the amount of impurities was measured. A formulation was added to a 10 mL amber vial and stored at 40° C. in a constant temperature chamber. At the desired time point(s), the formulation was analyzed by UPLC and the pH was measured. No change in physical appearance was observed.

[3] = Combination of exemplary composition and radiographic contrast agent, UPLC; conditions: for Increase in the amount of impurities of Compound of Formula (I), HPLC chromatograms: initial and 24-hour timepoints
Experimental: as §1
Equal volumes of a formulation from Example 1 and radiographic contrast agent (Omnipaque or Isovue), as received from the manufacturer, were drawn into separate syringes. The two syringes were connected to an indeflator by a three-way joint/stopcock. The indeflator was evacuated and the mixtures from both syringes were transferred into the indeflator. The indeflator was then inverted six times to ensure complete mixing of the mixtures. The resulting mixture was a yellow/orange translucent mixture, stored in an amber scintillation vial at room temperature, and analyzed by UPLC upon storage and after 24 hours.

[4] = equal volumes of formulation and Isovue, room temperature, t = 0 hours
[5] = equal volumes of formulation and Isovue, room temperature, t = 24 hours
[6] = equal volumes of formulation and Omnipaque, room temperature, t = 0 hours
[7] = equal volumes of formulation and Omnipaque, room temperature, t = 24 hours

Compound of Formula (I) (HPLC area-%) ([1]; 0 hours): 98.9 HPLC area-%
Total impurities (HPLC area-%) ([1]; 0 hours): 1.1 HPLC area-%
Compound of Formula (I) (HPLC area-%) ([1]; 1 hour): 98.9 HPLC area-%
Total impurities (HPLC area-%) ([1]; 1 hour): 1.1 HPLC area-%
Compound of Formula (I) (HPLC area-%) ([1]; 4 hours): 98.9 HPLC area-%
Total impurities (HPLC area-%) ([1]; 4 hours): 1.1 HPLC area-%
Compound of Formula (I) (HPLC area-%) ([1]; 7 hours): 98.9 HPLC area-%
Total impurities (HPLC area-%) ([1]; 7 hours): 1.1 HPLC area-%
Increase in the amount of impurities of Compound of Formula (I), HPLC chromatograms ([1]; mixture with paclitaxel, 1- and 7-hour time points, FIG. 7): no increase
Stability after being combined in the same composition [1]: stable
Increase in impurity concentration ([2]; composition at a pH ranging from 5 to 7): minimal
Degradation in compositions ([2]; compositions having a pH of less than 5 or greater than 7): degrade appreciably
Stability when combined with a radiographic contrast agent ([3]; after 24 hours, room temperature): stable
Compound of Formula (I) (HPLC area-%) [3, 4]: 98.98 HPLC area-%
Total impurities (HPLC area-%) [3, 4]: 1.02 HPLC area-%
Compound of Formula (I) (HPLC area-%) [3, 5]: 98.97 HPLC area-%
Total impurities (HPLC area-%) [3, 5]: 1.03 HPLC area-%
Compound of Formula (I) (HPLC area-%) [3, 6]: 98.98 HPLC area-%
Total impurities (HPLC area-%) [3, 6]: 1.02 HPLC area-%
Compound of Formula (I) (HPLC area-%) [3, 7]: 98.95 HPLC area-%
Total impurities (HPLC area-%) [3, 7]: 1.05 HPLC area-%
Increase in the amount of impurities of Compound of Formula (I), HPLC chromatograms ([3]; mixture with Isovue, FIG. 5): no increase
Increase in the amount of impurities of Compound of Formula (I), HPLC chromatograms ([3]; mixture with Omnipaque, FIG. 6): no increase
Structure (SMILES): NCCOCCOCCNc1ccc2c3c(cccc13)C(=O)N(CCOCCOCCN1C(=O)c3cccc4c(NCCOCCOCCN)ccc(c34)C1=O)C2=O [Compound of Formula (I), 2,2′-((ethane-1,2-diylbis(oxy))bis(ethane-2,1-diyl))bis(6-((2-(2-(2-aminoethoxy)ethoxy)ethyl)amino)-1H-benzo[de]isoquinoline-1,3(2H)-dione)]

Increase in the amount of impurities of paclitaxel, HPLC chromatograms ([1]; mixture of Compound of Formula (I) and paclitaxel, 1- and 7-hour time points, FIG. 8): no increase
Stability after being combined in the same composition [1]: stable
Structure (SMILES): CC(=O)O[C@H]1C(=O)[C@@]2(C)[C@H]([C@H](OC(=O)c3ccccc3)[C@]3(O)C[C@H](OC(=O)[C@H](O)[C@@H](NC(=O)c4ccccc4)c4ccccc4)C(C)=C1C3(C)C)[C@]1(OC(C)=O)CO[C@@H]1C[C@@H]2O [paclitaxel, reference compound]
